pKi: −log10 of the molar value.
Target: T1, GST-tagged-Wee1 kinase (Homo sapiens, UniProt P30291)
T1 construct: purchased Carnabio (Carna Biosciences) 05-177
Test: Wee1 time-resolved fluorescence equilibrium binding assay (displacement of Oregon Green-labeled ATP-competitive kinase probe)
Conditions: read-out: Wee-1 inhibition (Ki)
In short: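 Ki values derive from competitive displacement, under equilibrium, of a fast-reversible ATP-site Oregon Green kinase probe from GST-tagged Wee1, detected by time-resolved fluorescence.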

T1 sequence (P30291 whole entry): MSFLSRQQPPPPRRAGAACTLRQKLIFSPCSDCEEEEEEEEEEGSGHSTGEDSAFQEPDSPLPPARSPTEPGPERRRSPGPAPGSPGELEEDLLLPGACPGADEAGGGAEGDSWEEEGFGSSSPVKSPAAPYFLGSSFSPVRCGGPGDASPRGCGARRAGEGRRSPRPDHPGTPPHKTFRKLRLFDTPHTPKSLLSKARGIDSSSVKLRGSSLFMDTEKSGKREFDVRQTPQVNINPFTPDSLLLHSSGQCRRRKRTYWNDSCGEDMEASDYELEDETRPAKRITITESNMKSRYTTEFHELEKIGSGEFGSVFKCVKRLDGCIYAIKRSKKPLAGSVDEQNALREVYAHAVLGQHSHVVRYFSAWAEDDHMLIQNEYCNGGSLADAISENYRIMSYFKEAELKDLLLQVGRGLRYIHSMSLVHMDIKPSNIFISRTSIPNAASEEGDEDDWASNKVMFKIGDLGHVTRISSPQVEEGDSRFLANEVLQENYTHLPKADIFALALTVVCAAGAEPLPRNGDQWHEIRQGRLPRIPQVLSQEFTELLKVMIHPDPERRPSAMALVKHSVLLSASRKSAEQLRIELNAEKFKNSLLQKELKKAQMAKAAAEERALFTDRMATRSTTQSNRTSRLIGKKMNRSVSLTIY

| pKi | SMILES |
| --- | --- |
| 7.00 to 8.00 | Cc1ccc(Nc2ncc3c(=O)n(-c4ccccc4Cl)c4nccn4c3n2)cc1 [Example 69, 6-(2-chlorophenyl)-2-[(4-methylphenyl)amino]imidazo[1,2-a]pyrimido[5,4-e]pyrimidin-5(6H)-one] |
| > 8.00 | O=c1c2cnc(Nc3ccc(C4CCCCN4)cc3)nc2n2ccnc2n1-c1ccccc1Cl (centres unmarked) [Example 70, 6-(2-chlorophenyl)-2-{[4-(piperidin-2-yl)phenyl]amino}imidazo[1,2-a]pyrimido[5,4-e]pyrimidin-5(6H)-one] |
| > 8.00 | O=c1c2cnc(Nc3ccc(C4CCCN4)cc3)nc2n2ccnc2n1-c1ccccc1Cl (centres unmarked) [Example 71, 6-(2-chlorophenyl)-2-{[4-(pyrrolidin-2-yl)phenyl]amino}imidazo[1,2-a]pyrimido[5,4-e]pyrimidin-5(6H)-one] |
| > 8.00 | O=c1c2cnc(Nc3ccc(C4CCNC4)cc3)nc2n2ccnc2n1-c1ccccc1Cl (centres unmarked) [Example 72, 6-(2-chlorophenyl)-2-{[4-(pyrrolidin-3-yl)phenyl]amino}imidazo[1,2-a]pyrimido[5,4-e]pyrimidin-5(6H)-one] |
| > 8.00 | CN1Cc2cc(Nc3ncc4c(=O)n(-c5c(Cl)cccc5Cl)c5nccn5c4n3)ccc2C2(CC2)C1 [Example 73, 6-(2,6-dichlorophenyl)-2-[(2′-methyl-2′,3′-dihydro-1′H-spiro[cyclopropane-1,4′-isoquinolin]-7′-yl)amino]imidazo[1,2-a]pyrimido[5,4-e]pyrimidin-5(6H)-one] |
| > 8.00 | Cc1cc(Nc2ncc3c(=O)n(-c4c(Cl)cccc4Cl)c4nccn4c3n2)ccc1N1CCCN(C)CC1 [Example 74, 6-(2,6-dichlorophenyl)-2-{[3-methyl-4-(4-methyl-1,4-diazepan-1-yl)phenyl]amino}imidazo[1,2-a]pyrimido[5,4-e]pyrimidin-5(6H)-one] |
| > 8.00 | O=c1c2cnc(Nc3ccc(N4CCNCC4)c(C(F)(F)F)c3)nc2n2ccnc2n1-c1ccccc1Cl [Example 75, 6-(2-chlorophenyl)-2-{[4-(piperazin-1-yl)-3-(trifluoromethyl)phenyl]amino}imidazo[1,2-a]pyrimido[5,4-e]pyrimidin-5(6H)-one] |
| > 8.00 | O=c1c2cnc(Nc3ccc(OC[C@@H]4CCCN4)cc3)nc2n2ccnc2n1-c1ccccc1Cl [Example 76, 6-(2-chlorophenyl)-2-({4-[(2S)-pyrrolidin-2-ylmethoxy]phenyl}amino)imidazo[1,2-a]pyrimido[5,4-e]pyrimidin-5(6H)-one] |
| < 7.00 | Cc1cc(OCCCN2CCN(C)CC2)ccc1Nc1ncc2c(=O)n(-c3ccccc3Cl)c3nccn3c2n1 [Example 77, 6-(2-chlorophenyl)-2-({2-methyl-4-[3-(4-methylpiperazin-1-yl)propoxy]phenyl}amino)imidazo[1,2-a]pyrimido[5,4-e]pyrimidin-5(6H)-one] |
| > 8.00 | O=c1c2cnc(Nc3ccc(CN4CCOCC4)cc3)nc2n2ccnc2n1-c1ccccc1Cl [Example 78, 6-(2-chlorophenyl)-2-{[4-(morpholin-4-ylmethyl)phenyl]amino}imidazo[1,2-a]pyrimido[5,4-e]pyrimidin-5(6H)-one] |
| > 8.00 | O=c1c2cnc(Nc3ccc(Cn4ccnc4)cc3)nc2n2ccnc2n1-c1ccccc1Cl [Example 79, 6-(2-chlorophenyl)-2-{[4-(1H-imidazol-1-ylmethyl)phenyl]amino}imidazo[1,2-a]pyrimido[5,4-e]pyrimidin-5(6H)-one] |
| 7.00 to 8.00 | O=c1c2cnc(Nc3ccc(-n4ccnc4)cc3)nc2n2ccnc2n1-c1ccccc1Cl [Example 80, 6-(2-chlorophenyl)-2-{[4-(1H-imidazol-1-yl)phenyl]amino}imidazo[1,2-a]pyrimido[5,4-e]pyrimidin-5(6H)-one] |
| > 8.00 | O=c1c2cnc(Nc3ccc(N4CCNCC4)nc3)nc2n2ccnc2n1-c1ccccc1Cl [Example 81, 6-(2-chlorophenyl)-2-{[6-(piperazin-1-yl)pyridin-3-yl]amino}imidazo[1,2-a]pyrimido[5,4-e]pyrimidin-5(6H)-one] |
| 7.00 to 8.00 | CN1CCN(CCCOc2cccc(Nc3ncc4c(=O)n(-c5ccccc5Cl)c5nccn5c4n3)c2)CC1 [Example 82, 6-(2-chlorophenyl)-2-({3-[3-(4-methylpiperazin-1-yl)propoxy]phenyl}amino)imidazo[1,2-a]pyrimido[5,4-e]pyrimidin-5(6H)-one] |
| 7.00 to 8.00 | O=c1c2cnc(Nc3cccc(OCCCN4CCCCC4)c3)nc2n2ccnc2n1-c1ccccc1Cl [Example 83, 6-(2-chlorophenyl)-2-({3-[3-(piperidin-1-yl)propoxy]phenyl}amino)imidazo[1,2-a]pyrimido[5,4-e]pyrimidin-5(6H)-one] |
| > 8.00 | O=c1c2cnc(Nc3ccccc3)nc2n2ccnc2n1-c1c(Cl)cccc1Cl [Example 84, 6-(2,6-dichlorophenyl)-2-(phenylamino)imidazo[1,2-a]pyrimido[5,4-e]pyrimidin-5(6H)-one] |

| pKi | SMILES |
| --- | --- |
| > 8.00 | COc1cc(Nc2ncc3c(=O)n(-c4ccccc4Cl)c4nccn4c3n2)ccc1OCCNC(C)C [Example 85, 6-(2-chlorophenyl)-2-({3-methoxy-4-[2-(propan-2-ylamino)ethoxy]phenyl}amino)imidazo[1,2-a]pyrimido[5,4-e]pyrimidin-5(6H)-one] |
| > 8.00 | CC(C)NCCOc1ccc(Nc2ncc3c(=O)n(-c4ccccc4Cl)c4nccn4c3n2)cc1Cl [Example 86, 6-(2-chlorophenyl)-2-({3-chloro-4-[2-(propan-2-ylamino)ethoxy]phenyl}amino)imidazo[1,2-a]pyrimido[5,4-e]pyrimidin-5(6H)-one] |
| 7.00 to 8.00 | O=c1c2cnc(Nc3ccc(CO)cc3)nc2n2ccnc2n1-c1ccccc1Cl [Example 87, 6-(2-chlorophenyl)-2-{[4-(hydroxymethyl)phenyl]amino}imidazo[1,2-a]pyrimido[5,4-e]pyrimidin-5(6H)-one] |
| > 8.00 | O=c1c2cnc(Nc3ccc(Cn4cccn4)cc3)nc2n2ccnc2n1-c1ccccc1Cl [Example 88, 6-(2-chlorophenyl)-2-{[4-(1H-pyrazol-1-ylmethyl)phenyl]amino}imidazo[1,2-a]pyrimido[5,4-e]pyrimidin-5(6H)-one] |
| 7.00 to 8.00 | O=c1c2cnc(Nc3ccc(-n4cccn4)cc3)nc2n2ccnc2n1-c1ccccc1Cl [Example 89, 6-(2-chlorophenyl)-2-{[4-(1H-pyrazol-1-yl)phenyl]amino}imidazo[1,2-a]pyrimido[5,4-e]pyrimidin-5(6H)-one] |
| > 8.00 | O=c1c2cnc(Nc3ccc4c(c3)CNCC43CC3)nc2n2ccnc2n1-c1ccccc1Cl [Example 90, 6-(2-chlorophenyl)-2-(2′,3′-dihydro-1′H-spiro[cyclopropane-1,4′-isoquinolin]-7′-ylamino)imidazo[1,2-a]pyrimido[5,4-e]pyrimidin-5(6H)-one] |
| > 8.00 | CC(=O)N1Cc2cc(Nc3ncc4c(=O)n(-c5ccccc5Cl)c5nccn5c4n3)ccc2C2(CC2)C1 [Example 91, 2-[(2′-acetyl-2′,3′-dihydro-1′H-spiro[cyclopropane-1,4′-isoquinolin]-7′-yl)amino]-6-(2-chlorophenyl)imidazo[1,2-a]pyrimido[5,4-e]pyrimidin-5(6H)-one] |
| > 8.00 | CN1CCCc2cc(Nc3ncc4c(=O)n(-c5ccccc5Cl)c5nccn5c4n3)ccc21 [Example 92, 6-(2-chlorophenyl)-2-[(1-methyl-1,2,3,4-tetrahydroquinolin-6-yl)amino]imidazo[1,2-a]pyrimido[5,4-e]pyrimidin-5(6H)-one] |
| > 8.00 | CN(C)CCN1CCc2cc(Nc3ncc4c(=O)n(-c5ccccc5Cl)c5nccn5c4n3)ccc21 [Example 93, 6-(2-chlorophenyl)-2-({1-[2-(dimethylamino)ethyl]-2,3-dihydro-1H-indol-5-yl}amino)imidazo[1,2-a]pyrimido[5,4-e]pyrimidin-5(6H)-one] |
| > 8.00 | CN(C)C1Cc2ccc(Nc3ncc4c(=O)n(-c5ccccc5Cl)c5nccn5c4n3)cc2C1 (centres unmarked) [Example 94, 6-(2-chlorophenyl)-2-{[2-(dimethylamino)-2,3-dihydro-1H-inden-5-yl]amino}imidazo[1,2-a]pyrimido[5,4-e]pyrimidin-5(6H)-one] |
| > 8.00 | Cc1cc(Nc2ncc3c(=O)n(-c4c(F)cccc4Cl)c4nccn4c3n2)ccc1N1CCCN(C)CC1 [Example 96, 6-(2-chloro-6-fluorophenyl)-2-{[3-methyl-4-(4-methyl-1,4-diazepan-1-yl)phenyl]amino}imidazo[1,2-a]pyrimido[5,4-e]pyrimidin-5(6H)-one] |
| > 8.00 | CN1Cc2cc(Nc3ncc4c(=O)n(-c5c(F)cccc5Cl)c5nccn5c4n3)ccc2C(C)(C)C1 [Example 97, 6-(2-chloro-6-fluorophenyl)-2-[(2,4,4-trimethyl-1,2,3,4-tetrahydroisoquinolin-7-yl)amino]imidazo[1,2-a]pyrimido[5,4-e]pyrimidin-5(6H)-one] |
| 7.00 to 8.00 | CN1CCN(c2ccc(Nc3ncc4c(=O)n(-c5c(F)cccc5F)c5nccn5c4n3)cc2)CC1 [Example 98, 6-(2,6-difluorophenyl)-2-{[4-(4-methylpiperazin-1-yl)phenyl]amino}imidazo[1,2-a]pyrimido[5,4-e]pyrimidin-5(6H)-one] |
| > 8.00 | O=c1c2cnc(Nc3ccc4c(c3)CN(CCO)CC4)nc2n2ccnc2n1-c1ccccc1Cl [Example 99, 6-(2-chlorophenyl)-2-{[2-(2-hydroxyethyl)-1,2,3,4-tetrahydroisoquinolin-7-yl]amino}imidazo[1,2-a]pyrimido[5,4-e]pyrimidin-5(6H)-one] |
| > 8.00 | CN1CCCN(c2ccc(Nc3ncc4c(=O)n(-c5ccccc5Cl)c5nccn5c4n3)cc2CO)CC1 [Example 100, 6-(2-chlorophenyl)-2-{[3-(hydroxymethyl)-4-(4-methyl-1,4-diazepan-1-yl)phenyl]amino}imidazo[1,2-a]pyrimido[5,4-e]pyrimidin-5(6H)-one] |
| > 8.00 | O=c1c2cnc(Nc3ccc(N4CCN5CCCC5C4)cc3)nc2n2ccnc2n1-c1ccccc1Cl (centres unmarked) [Example 101, 6-(2-chlorophenyl)-2-{[4-(hexahydropyrrolo[1,2-a]pyrazin-2(1H)-yl)phenyl]amino}imidazo[1,2-a]pyrimido[5,4-e]pyrimidin-5(6H)-one] |
